From patent publication US20230364032A1, “USE OF 2-HOBA TO TREAT ATHEROSCLEROSIS” (Vanderbilt University, priority 2020, published 2023)
“Also recorded” adds a separate entry of the source.

Assays:
MDA-protein adducts = assay: Proximal aortic lesion MDA adducts by immunofluorescence; assay type: in vivo, mouse; conditions: Ldlr−/− mice
Description: The extent of atherosclerosis was examined both Oil-Red-O-stained cross-sections of the proximal aorta and by en face analysis^30. Briefly, cryosections of 10-micron thickness were cut from the region of the proximal aorta starting from the end of the aortic sinus and for 300 μm distally, according to the method of Paigen et al.^62. The Oil red-O staining of 15 serial sections from the root to ascending aortic region were used to quantify the Oil red-O-positive staining area per mouse. The mean from the 15 serial sections was applied for the aortic root atherosclerotic lesion size per mouse using the KS300 imaging system (Kontron Elektronik GmbH) as described^63, 64, 65. All other stains were done using sections that were 40 to 60 μm distal of the aortic sinus. For each mouse, 4 sections were stained and quantitation was done on the entire cross section of all 4 sections. For immunofluorescence staining, 5 μm cross-sections of the proximal aorta were fixed in cold acetone (Sigma), blocked in Background Buster (Innovex), incubated with indicated primary antibodies (MDA and CD68) at 4° C. for overnight. After incubation with fluorescent labeled secondary antibodies at 37 C for 1 hour, the nucleus was counterstained with Hoechst. Images were captured with a fluorescence microscope (Olympus IX81) and SlideBook 6 (Intelligent-Image) software and quantitated using ImageJ software (NIH)^66.

IL-1β, IL-6, TNF-α, SAA = assay: Plasma/serum inflammatory cytokines by ELISA; assay type: in vivo, mouse
Experimental: The inflammatory cytokines including IL-1β (5A), IL-6 (5B), TNF-α (5C) and SAA (5D) were measured by ELISA in plasma from mice consuming a western diet for 16 weeks and treated with 2-HOBA, 4-HOBA, or vehicle. N=8 per group.*p<0.05, **p<0.01. ***p<0.001. One-way ANOVA with Bonferroni's post hoc test.
Serum IL-1β, IL-6 and TNF-α levels were measured by ELISA (R&D System). N=7 or 8 mice per group, N.S., One-way ANOVA with Bonferroni's post hoc test.

peritoneal macrophages = assay: Macrophage cytokine mRNA by real time PCR (oxidized LDL or H2O2); assay type: cell-based, mouse
Experimental: […] Apoptotic cells were then detected by Annexin V staining and flow cytometry. […] (6A to 6H) Data are presented as mean±SEM from three independent experiments, ***p<0.001, One-way ANOVA with Bonferroni's post hoc test.
Total RNA was isolated and purified, cDNA was synthesized, and the mRNA levels of IL-1β, IL-6 and TNF-α were measured by real-time PCR. The data are from three independent experiments. *p<0.05, **p<0.01, ***p<0.001, One-way ANOVA (Bonferroni's post hoc test).
Total RNA was extracted and purified using Aurum Total RNA kit (Bio-Rad) according to the manufacturer's protocol. Complementary DNA was synthesized with iScript reverse transcriptase (Bio-Rad). Relative quantitation of the target mRNA was performed using specific primers, SYBR probe (Bio-Rad), and iTaqDNA polymerase (Bio-Rad) on IQ5 Thermocylcer (Bio-Rad) and normalized with 18S, as described earlier. 18S, IL-1[…] and TNF-[…] primers used were as described earlier^67.

MDA-LDL = assay: MDA adducts in isolated LDL by ELISA; assay type: in vivo, mouse; conditions: Ldlr−/− mice
Experimental: FIG. 21A-D show the effects of 2-HOBA on plasma and LDL MDA adducts in hypercholesterolemic Ldlr^−/− mice. (20A) The MDA content in plasma from Ldlr^−/− mice consuming a Western diet for 16 weeks and treated with 2-HOBA, 4-HOBA, or vehicle was measured by TBARS Assay(*p<0.05, **p<0.01). (20B) The levels of MDA adducts were measured from LDL isolated from the Ldlr^−/− mice by ELISA. N=10 per group, ***p<0.001. (20C) LDL was isolated from control and FH subjects (n=6) pre and post LDL apheresis and the MDA adduct content was measured by ELISA. (20D) LDL was isolated from 2-HOBA, 4-HOBA, or vehicle treated hypercholesterolemic Ldlr^−/− mice. WT peritoneal macrophages were incubated for 24 hrs with the LDL and the cellular cholesterol content was measured as described in methods. (20A-D) One-way ANOVA with Bonferroni's post hoc test).
The study was approved by the Vanderbilt University Institutional Review Board (IRB), and all participants gave their written informed consent. The human blood samples from patients with severe FH, who were undergoing LDL apheresis, and healthy controls were obtained using an IRB approved protocol. HDL and LDL were prepared from serum by Lipoprotein Purification Kits (Cell BioLabs, Inc.). Sandwich ELISA was used to measure plasma MDA-LDL and MDA-HDL levels following the manufacturer's instructions (Cell BioLabs, Inc.). Briefly, isolated LDL or HDL samples and MDA-Lipoprotein standards were added onto anti-MDA coated plates, and, after blocking, the samples were incubated with biotinylated anti-apoB or anti-ApoAI primary antibody. The samples were then incubated for 1 h with streptavidin-enzyme conjugate and 15 min with substrate solution. After stopping the reaction, the O.D. was measured at 450 nm wavelength. MDA-ApoAI was detected in mouse plasma by immunoprecipitation of ApoAI and western blotting. […] Proteins were visualized and quantitated by Odyssey 3.0 Quantification software (LI-COR).

[1] = target: anti-MDA antibody / MDA-BSA (Bos taurus, UniProt P02769); assay: Anti-MDA antibody interaction with MDA-BSA (dot blot); conditions: MDA-BSA incubated with 1× or 5× 2-HOBA
Experimental: A series of doses of MDA-BSA or MDA alone were incubated with 1× or 5×2-HOBA. Then 2 μl of each sample was loaded onto HyBond-C membrane, and incubated with the blocking buffer, primary anti-MDA antibody and fluorescent secondary antibody after vigorous washing. The image was captured by the Odyssey system (FIG. 10A) and quantitated by ImageJ software (FIG. 10B).

Sequence of anti-MDA antibody / MDA-BSA (P02769 25-607): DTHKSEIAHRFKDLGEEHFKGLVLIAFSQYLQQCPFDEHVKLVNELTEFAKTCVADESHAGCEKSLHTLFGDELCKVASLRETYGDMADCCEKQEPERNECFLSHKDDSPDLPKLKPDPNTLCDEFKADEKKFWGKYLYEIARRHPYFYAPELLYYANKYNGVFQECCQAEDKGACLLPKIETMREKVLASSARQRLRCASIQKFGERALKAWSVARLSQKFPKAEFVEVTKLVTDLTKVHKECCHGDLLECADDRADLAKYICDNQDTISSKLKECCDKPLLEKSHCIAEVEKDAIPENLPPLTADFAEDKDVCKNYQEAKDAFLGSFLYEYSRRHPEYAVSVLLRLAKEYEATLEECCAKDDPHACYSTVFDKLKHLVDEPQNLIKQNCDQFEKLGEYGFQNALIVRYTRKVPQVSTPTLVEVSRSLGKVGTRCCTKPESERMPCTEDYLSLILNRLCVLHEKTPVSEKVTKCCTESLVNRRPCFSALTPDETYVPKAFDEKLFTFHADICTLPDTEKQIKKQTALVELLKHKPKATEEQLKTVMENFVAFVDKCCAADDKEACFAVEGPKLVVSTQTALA

In the case of NCc1ccccc1O [2-HOBA, 2-hydroxybenzylamine], the “reduction of proximal aortic MDA adduct levels (immunofluorescence)” value (MDA-protein adducts; compared to 4-HOBA) is reported as 66.8%, the “reduction of proximal aortic MDA adduct levels (immunofluorescence)” value (MDA-protein adducts; compared to vehicle alone) is reported as 68.5% and the “cytokine levels (IL-1β, IL-6, TNF-α)” value (IL-1β, IL-6, TNF-α, SAA; Ldlr−/− mice on chow diet, 1 g/L) is reported as “no impact”. The “serum levels of IL-1β, IL-6, TNF-α, and serum amyloid A” value (IL-1β, IL-6, TNF-α, SAA; Ldlr−/− mice, western diet 16 weeks, versus 4-HOBA or vehicle) was “decreased; also recorded: reduces”, the “levels of IL-1β, IL-6, and TNF-α mRNA” value (peritoneal macrophages; 500 μM 2-HOBA in the presence of H2O2 (100 μM, 24 hours)) was “significantly reduced” and the “macrophage inflammatory response: mRNA levels of IL-1β, IL-6, and TNF-α” value (peritoneal macrophages; oxidized LDL, 24 h, 500 μM) was “significantly reduced”. For the same compound, the “MDA content in LDL” value (MDA-LDL) was “reduced”, the “reduction of MDA adduct content in isolated LDL (ELISA)” value (MDA-LDL; compared to 4-HOBA) was 54% and the “reduction of MDA adduct content in isolated LDL (ELISA)” value (MDA-LDL; compared to vehicle) was 57%. For the same compound, the “interference with antibody recognition of MDA-albumin adducts” value [1] was “does not interfere; also recorded: does not impact”.
